Experimental findings from patent publication US20240110004A1 (Northwestern University, priority 2022, published 2024) are described below.

For one assay, the system named is R6/2 mice. Briefly: mtHtt impact: mitochondrial VCP level and mtHtt aggregation in striatum. It is filed as in vivo, mouse. The following applies: for VCP level on mitochondria of striatum: ATPB loading control; for mtHtt aggregation in striatum: compared to saline treated. The source says:
FIG. 34A-34B: Quantification of mitochondrial studies. FIG. 34A depicts quantification of immunoblot results for VCP levels on mitochondrial fractions from striatal extracts of WT and R6/2 mice after treatment (immunoblot not shown). ATPB refers to ATP-ase β subunit. p-value for: WT veh as compared to R62 veh: <0.0001; WT+P1 as compared to R62 veh: <0.0001; R62 veh as compared to R62+HV3-TAT: 0.0001; R62 veh as compared to R62+P1: 0.0184; R62+P1 as compared to R62+HV3-TAT: 0.2663. FIG. 34B depicts quantification of mtHtt aggregation after EM48 staining (stains not shown). p-value for: R62 veh as compared to R62+HV3-TAT: 0.0491; R62 veh as compared to R62+P1: 0.0189; R62+P1 as compared to R62+HV3-TAT: 0.8765.
In vivo Efficacy Methods—mtHtt Impact: As the pathophysiological hallmark of HD, the formation of mtHtt aggregates can be observed in striatum of HD mouse models, like R6/2 mice. […] HV3 peptide blocks mtHtt-VCP binding, and inhibits VCP mitochondrial accumulation, which reduce behavioral and neuropathological phenotypes of HD. Mitochondrial level of VCP and mtHtt aggregation were examined to test whether PLP recapitulates the mechanism of HV3 peptide. Mitochondrial fractions of striatum were isolated from mice in each treatment group. Protein levels of VCP on mitochondria were analyzed by western blotting, using ATPB as a loading control for mitochondria. mtHtt aggregation was visualized by immunohistochemical staining by anti-mtHtt antibody.

The next assay deals with HdhQ111 cells. Briefly: Cell viability in HdhQ111 cells after enzyme or serum pretreatment of the compounds. The format is cell-based, mouse. The conditions noted are these: relative to compound without pretreatment, 3 μM with respect to peptide. The method, then:
FIG. 10A-10B: Cell viability in HdhQ111 mouse striatal cells after enzyme pretreatment.
Each degradation experiment was repeated three times.
To verify that the PLPs retain bioactivity after being exposed to enzymes or serum treatments, the viability of HD mouse mutant striatal HdhQ111 cells was assessed following treatment with HV3-TAT and P1. […] Cells were maintained at 33° C. and 5% CO2 with a relative humidity of 95%. HdQ111 cells were plated in 96-well plates at a density of 5000 per well and then left to attach for 24 h. Cells were treated with HV3-TAT or PLPs at 3 μM with respect to peptide once a day, for 3 days. The medium was replaced every day. After 72 h, cells were washed 3 times with PBS buffer. At this point, 20 μL of CTB reagent in 80 uL of medium was added, and the cells incubated for 3 hours at 37° C. Fluorescence was measured at 590 nm with excitation at 560 nm using a Perkin Elmer EnSpire plate reader. The average background fluorescence of CTB in media without cells was subtracted from the average fluorescence readings of the experimental wells. Viability was calculated as the average background-subtracted signal in a well compared to that of a negative control well (treatment with vehicle or media). Three replicates were performed for each independent sample. 10% DMSO was used as a positive control and untreated cells in complete medium as a negative control. […]

Where no end group is shown, it is not given here.

For “P1: PLP homopolymer having peptide side chains of SEQ ID: 1 (HVLVMSATRR), made by ROMP of norbornene peptide monomer M1 (also: side chains of polynorbornene homopolymer (PLP, ROMP of norbornene peptide monomer))”, in the assay on R6/2 mice, the “VCP level on mitochondria of striatum” value is recorded as “inhibited mitochondrial VCP accumulation to a lesser extent” and the “mtHtt aggregation in striatum” value is “inhibited mtHtt aggregation”. In addition, the “cell viability after enzyme or serum pretreatment of the compound” value in the assay with HdhQ111 cells is “did not have any significant change in cell viability”.
On to “peptide sequence HVLVMCAT (HV3) coupled to the cell penetrating, HIV-derived TAT peptide [HV3-TAT, reference compound]”, for which, in the assay with R6/2 mice, the “VCP level on mitochondria of striatum” value is reported as “blocked aberrant VCP mitochondrial translocation” and the “mtHtt aggregation in striatum” value was “inhibited mtHtt aggregation”. In addition, in the assay on HdhQ111 cells, the “cell viability after enzyme or serum pretreatment of the compound” value was “significant decrease in cell viability”.
